According to patent US20240199977A1, “COMPOSITIONS COMPRISING A META-(C1-C4 ALKOXY) […]” (The Procter & Gamble Company, priority 2022, published 2024):
In brackets after ≈: the same amount, converted by molar mass. Like-named read-outs stand apart in the source and are kept apart here.

How the values were obtained:
[1] = Headspace Method, Air/IPM partition (dynamic headspace GC/MS); format: physicochemical; details: for Air/IPM partition coef / Headspace: 30° C.; for Headspace: above IPM solution of about 2.1E+06 ng/mL
Experimental: (§1) Perfume headspace data is collected for various materials according to the method provided below.
(§2) The partition coefficients are calculated by determining the amount of PRM in the headspace above a solution with a known concentration using a GC/FID-MS (Agilent 7890 and 5977A MSD) with a thermal desorption unit (Gerstel MPS2) and Dynamic Headspace Sampler (Gerstel DHS). This technique allows for automated headspace collections using the MultiPurposeSampler (MPS). The PRMs of interest are prepared at a known concentration in isopropyl myristate (IPM) or propylene glycol monomethyl ether (DPM), and 1 mL is pipetted in a 20 mL headspace vial.
(§3) DHS Conditions: The sample is tempered in the unit at 30° C. A helium stream at 10 mls/min purges 20 mL of headspace containing the analytes above the sample onto the sorbent tube (TDU) containing 25 mg of TenaxTA 35/60 (Restek cat # 25701).
(§4) TDU conditions: The sorbent tube is desorbed with a program starting at 30° C. solvent vent for 2 min then ramped at 720° C./min to 270 ° C. and held for 8 min. The analytes are refocused on a glass bead liner at -60° C. then desorbed at a rate of 12 ° C./s to 270° C. onto the GC column.
(§5) GC/MS conditions: Agilent 122-5532UI column of 30 m×250 μm×0.25 μm and a flow rate of 1.5 mL/min is utilized. A temperature program of 50° C. to 280° C. with a 2 min hold and a ramp rate of 12° C./min is suitable. Scan or SIM mode MSD parameters with a solvent delay for the DPM are applied to achieve appropriate detection.
(§6) Analytical standards can be obtained from Sigma Aldrich, St. Louis, MO and BioSynth, UK. A stock solution is prepared at approximately 0.5 g/L. The stock solution is then diluted to 4 to 5 concentrations ranging from approximately 0.05 g/L to 0.00005 g/L. These standard solutions are then analyzed by GC/MS. This analysis is performed by using the same TDU desorption and GC/MS conditions described above with a luL liquid injection onto the TDU tube instead of the DHS collection. The amount injected on column and the area responses of the target m/z are utilized to create a calibration plot with a linear fit.
(§7) Quantification of the headspace is performed by the PRM target m/z area response of the perfume component and the linear equation of the calibration plot.
(§8) Perfume headspace data is collected for various materials according to the Headspace 5 Method provided above in the Test Methods section. The Air/Solvent partition coefficients are determined and indexed accordingly (e.g., where the partition coefficient for ethylvanillin is set at 1.00).

[2] = Headspace Method, Air/DPM partition (dynamic headspace GC/MS); format: physicochemical; details: for Air/DPM partition coef / Headspace: 30° C.; for Headspace: above DPM solution of 1.1E+07 ng/mL
Experimental: as §1, §2, §3, §4, §5, §6, §7, §8

physchem = details: oil or lipid, thermodynamic from solid

Row | Ethylvanillin Indexed Air/IPM partition coefficient [1] | Air/IPM partition coef ([1]; average of two replicates) | Headspace ([1]; average of two replicates) [ng/mL] | goes into the headspace more than its structural isomer ethylvanillin ([1]; out of IPM) | Ethylvanillin Indexed Air/DPM partition coefficient [2] | Air/DPM partition coef ([2]; average of three replicates) | Headspace ([2]; average of three replicates) [ng/mL] | goes into the headspace more than ethylvanillin ([2]; out of DPM) | Structure (SMILES) | solubility (physchem) [mg/mL] | Ethylvanillin Indexed Air/IPM partition coefficient ([1]; indexed, ethylvanillin set at 1.00, average of two replicates) | Ethylvanillin Indexed Air/DPM partition coefficient ([2]; indexed, ethylvanillin set at 1.00, average of three replicates)
1 | 6.17 | 1.21E−07 ng/mL in air per ng/mL in IPM | 0.2521 | about 6.2 X | 93.7 | 2.31E−07 ng/mL in air per ng/mL in DPM | 2.4678 | about 94 X | CCOc1cccc(C=O)c1O [ortho-Ethylvanillin, 2-hydroxy-3-ethoxybenzaldehyde] | 73 (≈ 439 mM) |  | 
2 | 1.40 | 2.73E−08 ng/mL in air per ng/mL in IPM | 0.0563 |  | 4.88 | 1.21E−08 ng/mL in air per ng/mL in DPM | 0.1288 |  | COc1cc(C=O)ccc1O [Vanillin] |  |  | 

Row | Structure (SMILES) | Ethylvanillin Indexed Air/IPM partition coefficient [1] | Air/IPM partition coef ([1]; average of two replicates) | Headspace ([1]; average of two replicates) [ng/mL] | goes into the headspace more than its structural isomer ethylvanillin ([1]; out of IPM) | Ethylvanillin Indexed Air/DPM partition coefficient [2] | Air/DPM partition coef ([2]; average of three replicates) | Headspace ([2]; average of three replicates) [ng/mL] | goes into the headspace more than ethylvanillin ([2]; out of DPM) | solubility (physchem) [mg/mL] | Ethylvanillin Indexed Air/IPM partition coefficient ([1]; indexed, ethylvanillin set at 1.00, average of two replicates) | Ethylvanillin Indexed Air/DPM partition coefficient ([2]; indexed, ethylvanillin set at 1.00, average of three replicates)
3 | CCOc1cc(C=O)ccc1O [Ethylvanillin] |  | 1.95E−08 ng/mL in air per ng/mL in IPM | 0.0402 |  |  | 2.45E−09 ng/mL in air per ng/mL in DPM | 0.0262 |  | 38 (≈ 229 mM) | 1.00 | 1.00
